Here are results for seven compounds from ChEMBL document CHEMBL4813910, “Curse or Cure? A Perspective on the Developability of Aldehydes as Active Pharmaceutical Ingredients” (J Med Chem, 2020).

A short description of series [1]: Drug excretion in human urine at 0.7 mg/kg, po measured after 8 to 24 hrs. In kind it is ADME, organism-based. As to conditions: time 8-24 hrs, read-out: Drug excretion.
Series [2] is described as follows: Oral bioavailability in human at 0.7 mg/kg. In kind it is ADME, organism-based. As to conditions: in vivo.
Series [3] can be described thus: Half life in human at 0.7 mg/kg, po. It is filed as ADME, organism-based. As to conditions: in vivo.
Series [4] can be described thus: Bioavailability in human at 10.3 mg. In kind it is ADME, organism-based. As to conditions: in vivo.
The nature of series [5]: Tmax in human at 0.03 mg/kg, po. In kind it is ADME, organism-based. As to conditions: in vivo.
Series [6] is described as follows: Oral bioavailability in human at 0.03 mg/kg. In kind it is ADME, organism-based. As to conditions: in vivo.
The nature of series [7]: Half life in human at 0.03 mg/kg, po. In kind it is ADME, organism-based. As to conditions: in vivo.
A short description of series [8]: Dermal bioavailability in human at 0.46 mg/kg. It is filed as ADME, organism-based. As to conditions: in vivo, topical or ocular.
The nature of series [9]: Drug excretion in human urine at 0.46 mg/kg dosed-dermally measured for 24 hrs. In kind it is ADME, organism-based. As to conditions: topical or ocular, read-out: Drug excretion.
Series [10] in a line: Drug excretion in human urine measured for 24 hrs. In kind it is ADME, tissue-based. As to conditions: read-out: Drug excretion.
The target of series [11] is Serine/threonine-protein kinase/endoribonuclease IRE1 (Mus musculus, UniProt Q9EQY0). Put plainly: Inhibition of mouse IRE1 assessed as reduction in XBP1 splicing using 5'-Alexa Fluor 647-CAUGUCCGCAGCGCAUG-BHQ1-3' as substrate preincubated for 30 mins followed by substrate addition by FRET assay.
The nature of series [12]: Protein binding in human plasma incubated for 240 mins by equilibrium dialysis. It is filed as ADME, cell-free. As to conditions: read-out: PPB (converted).
A short description of series [13]: Drug metabolism in human assessed as Tmax of acid metabolite at 0.25%, OU administered once daily for 7 days. It is filed as ADME. As to conditions: topical_or_ocular, 168 h, time 7 day.
Series [14] can be described thus: Drug metabolism in human assessed as Cmax of acid metabolite at 0.25%, OU administered once daily for 7 days. It is filed as ADME. Also noted: dose 0.25 %, time 7 day. As to conditions: topical_or_ocular, 168 h.
Series [15] in a line: Drug metabolism in human assessed as half life of acid metabolite at 0.25%, OU administered once daily for 7 days. In kind it is ADME. As to conditions: topical_or_ocular, 168 h, time 7 day.
Series [16] can be described thus: Cmax in human at 0.25%, OU administered once daily for 7 days. In kind it is ADME. Also noted: dose 0.25 %, time 7 day. As to conditions: topical or ocular.
The nature of series [17]: Half life in human liver supernatant. It is filed as ADME, subcellular, Supernatent.
Series [18] in a line: Half life in human at 0.25%, OU administered once daily for 7 days. As to conditions: topical or ocular, time 7 day. In kind it is ADME.
Series [19] can be described thus: Tmax in human at 0.25%, OU administered once daily for 7 days. As to conditions: topical or ocular, time 7 day. It is filed as ADME.
Series [20] in a line: Drug metabolism in human assessed as AUC (0 to infinity) of acid metabolite at 0.25%, OU administered once daily for 7 days. It is filed as ADME. Also noted: time 7 day, dose 0.25 %. As to conditions: topical_or_ocular, 168 h.
A short description of series [21]: Half life in mouse plasma at 5 ug/ml incubated for 1 to 24 hrs by LC/MS/MS method. It is filed as ADME, cell-free. As to conditions: time 1-24 hrs, dose 5 µg/ml.
The nature of series [22]: Half life in dog plasma at 5 ug/ml incubated for 1 to 24 hrs by LC/MS/MS method. As to conditions: time 1-24 hrs, dose 5 µg/ml. In kind it is ADME, cell-free, Canis lupus familiaris.
Series [23] in a line: Half life in human plasma at 5 ug/ml incubated for 1 to 24 hrs by LC/MS/MS method. It is filed as ADME, cell-free. As to conditions: time 1-24 hrs, dose 5 µg/ml.
Series [24] is described as follows: Oral bioavailability in mouse at 3 mg/kg. As to conditions: in vivo. In kind it is ADME, organism-based.
A short description of series [25]: AUC (0 to 24 hrs) in mouse at 3 mg/kg, po. It is filed as ADME, organism-based. Also noted: time < 24 hr, route oral, dose 3 mg/kg. As to conditions: in vivo.
A short description of series [26]: Cmax in mouse at 3 mg/kg, po. It is filed as ADME, organism-based. Also noted: route oral, dose 3 mg/kg. As to conditions: in vivo.
Series [27] is described as follows: AUC (0 to 24 hrs) in mouse at 1 mg/kg, iv. It is filed as ADME, organism-based. Also noted: time < 24 hr, route intravenous, dose 1 mg/kg. As to conditions: in vivo.
Series [28] can be described thus: Tmax in mouse at 3 mg/kg, po. In kind it is ADME, organism-based. As to conditions: in vivo.
Series [29] is described as follows: Half life in mouse at 1 mg/kg, iv. As to conditions: in vivo. In kind it is ADME, organism-based.
Series [30] can be described thus: Clearance in mouse at 1 mg/kg, iv. It is filed as ADME, organism-based. As to conditions: in vivo.
Series [31] is described as follows: Volume of distribution at steady state in mouse at 1 mg/kg, iv. In kind it is ADME, organism-based. As to conditions: in vivo, read-out: Vdss.

Some results are limits rather than exact numbers.

Serine/threonine-protein kinase/endoribonuclease IRE1, sequence (Q9EQY0 whole entry): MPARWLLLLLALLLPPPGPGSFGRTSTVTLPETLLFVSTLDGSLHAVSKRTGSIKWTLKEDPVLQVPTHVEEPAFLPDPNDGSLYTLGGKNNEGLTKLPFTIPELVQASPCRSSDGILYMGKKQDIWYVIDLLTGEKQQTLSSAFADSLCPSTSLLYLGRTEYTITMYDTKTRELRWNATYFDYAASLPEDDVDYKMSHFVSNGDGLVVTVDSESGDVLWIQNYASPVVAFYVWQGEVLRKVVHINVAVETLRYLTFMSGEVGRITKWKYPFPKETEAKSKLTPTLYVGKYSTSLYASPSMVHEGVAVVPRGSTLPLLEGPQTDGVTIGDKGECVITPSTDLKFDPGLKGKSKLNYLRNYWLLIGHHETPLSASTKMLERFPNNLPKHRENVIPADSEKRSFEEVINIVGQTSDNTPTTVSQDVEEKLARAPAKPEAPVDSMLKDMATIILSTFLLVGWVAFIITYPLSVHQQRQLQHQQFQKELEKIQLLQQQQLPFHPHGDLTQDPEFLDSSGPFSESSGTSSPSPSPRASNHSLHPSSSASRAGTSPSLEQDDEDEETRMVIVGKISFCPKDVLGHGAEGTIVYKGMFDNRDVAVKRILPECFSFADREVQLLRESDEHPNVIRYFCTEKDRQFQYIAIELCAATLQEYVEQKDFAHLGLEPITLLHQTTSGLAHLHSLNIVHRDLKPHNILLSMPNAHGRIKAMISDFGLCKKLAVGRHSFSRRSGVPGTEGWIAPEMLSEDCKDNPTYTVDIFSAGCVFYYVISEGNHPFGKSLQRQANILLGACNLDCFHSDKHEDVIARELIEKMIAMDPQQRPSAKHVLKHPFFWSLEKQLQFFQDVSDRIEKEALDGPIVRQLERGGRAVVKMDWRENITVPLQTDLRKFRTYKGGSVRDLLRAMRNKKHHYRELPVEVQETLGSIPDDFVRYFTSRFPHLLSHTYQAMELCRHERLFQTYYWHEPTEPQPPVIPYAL

`O=C/C=C/c1ccccc1`: the dose excreted in [1] came out at 100%. For the same compound, the bioavailability in series [2] turned out to be 100%; in [4], 9%. The half-life in series [3] is under 4 h.

Regarding `CC(CC=O)CCCC(C)(C)O` (configuration not stated), the Tmax in series [5] was 2.7 h. Also, the values for the bioavailability in series [6] and in series [8] were 100% and 5%, respectively. In series [7], this compound gave a half-life of 3.28 h. In addition, the dose excreted at 24 h is 90% in [9] and 94% in series [10].

`COc1cc2c(C)c(CC(=O)N3CCOCC3)c(=O)oc2c(C=O)c1O`: in series [11], the IC50 is under 100 nM.

On to `CN1CCC(=C2c3ccccc3CCn3c(C(=O)O)cnc32)CC1`, for which the fraction unbound at 4 h in series [12] is 0.37.

`CN1CCC(=C2c3ccccc3CCn3c(C=O)cnc32)CC1` [ALCAFTADINE]: the Tmax in [13] came out at 1.05 h; in [19], 0.25 h. In addition, the fraction unbound at 4 h in series [12] was 0.61. For the same compound, the results for the Cmax in series [14] and in series [16] were 6 nM and 0.15 nM, respectively. Also, in [15], the t1/2 turned out to be 2 h. For the same compound, the half-life in series [17] is under 0.25 h; in [18], 0.4 h. For the same compound, the AUC in series [20] was found to be 0.0087 µM·h.

As for `Cc1cc2c(C(C)C)c(O)c(O)cc2c(O)c1-c1c(C)cc2c(C(C)C)c(O)c(O)cc2c1O` [APOGOSSYPOL], the half-life at 5 ug/ml in series [21], in [22] and in series [23] was under 1 h each time.

Take `COCCNc1cc(NC(=O)N2CCCc3cc(CN4CCN(C)CC4=O)c(C=O)nc32)ncc1C#N` [FGF401]: the F in series [24] is 21%. The AUC in series [25] worked out at 0.25 µM·h; in series [27], 1.16 µM·h. In series [26], this compound yielded a Cmax of 200 nM. The Tmax in series [28] turned out to be 2 h. The compound further showed a half-life in [29] of 1.4 h. For the same compound, in series [30], the clearance was determined as 28 mL/min/kg. In addition, the Vd in series [31] is 2.3 L/kg.
